System: SGK2
Test: Inhibition of kinase activity by SGK2 inhibitory compounds, single concentration
Assay type: biochemical
Conditions: 10 μM compound
Excerpt: A library of compounds was screened for inhibitors of SGK2 and PAK3 activity by assaying phosphorylation of a generic peptide substrate either directly; or indirectly by inhibiting upstream kinase PDK1 from activating the enzyme in vitro. In both cases, the phosphorylated substrate was detected using a specific anti-phospho peptide antibody that is coupled with Eu^3+ Cryptate and XL665 conjugated with streptavidin. […] All initial hits were re-assayed as a dose response series with eight 3-fold dilutions and resulting final concentrations ranged from 0.9 nM to 20 μM.

SMILES | % Inhibition at 10 μM [%]
O=C(OCC1OC(OC(=O)c2cc(O)c(O)c(OC(=O)c3cc(O)c(O)c(O)c3)c2)C(OC(=O)c2cc(O)c(O)c(OC(=O)c3cc(O)c(O)c(O)c3)c2)C(OC(=O)c2cc(O)c(O)c(OC(=O)c3cc(O)c(O)c(O)c3)c2)C1OC(=O)c1cc(O)c(O)c(OC(=O)c2cc(O)c(O)c(O)c2)c1)c1cc(O)c(O)c(OC(=O)c2cc(O)c(O)c(O)c2)c1 (stereo not drawn) [LDN-0097728] | 85
O=c1cc(-c2cc(O)c(O)c(O)c2)oc2cc(O)cc(O)c12 [LDN-0097731] | 87
O=C(CSc1ncnc2c1oc1ccccc12)Nc1ccccc1 [LDN-0107896] | 73
O=C(Nc1cccc(-c2cscn2)c1)C1CCN(Cc2cccc(-c3ccco3)c2)CC1 [LDN-0117557] | 60
Cc1ccc(NC(=O)Cn2cc(C(=O)c3ccccc3)c(=O)c3ccc(C)nc32)cc1 [LDN-0130103] | 62
Cc1ccc2c(=O)c(C(=O)c3ccccc3)cn(CC(=O)Nc3cccc(C)c3C)c2n1 [LDN-0130105] | 70

Continued, values first:

% Inhibition at 10 μM [%] | SMILES
67 | CCc1cc(-c2n[nH]cc2-c2ccc(Br)cc2)c(O)cc1O [LDN-0106197]
66 | COc1ccc(NC(=O)CSc2ncnc3c2oc2ccccc23)cc1 [LDN-0107905]
67 | Cc1cccc(NC(=O)CSc2ncnc3c2oc2ccccc23)c1C [LDN-0107915]

Reference: patent publication US20120208204A1, “Compositions and Methods for Inhibiting Tumor Growth” (The Brigham and Women's Hospital, Inc., priority 2009, published 2012)
